The values that follow come from ChEMBL document CHEMBL1145680, “Bioactive Norlignan Glucosides from Curculigo capitulata” (1997).

Assay [1] relates to Right cardiac atrium. As to the kind of experiment: Effect on spontaneous contractile tension in WKY rat right atria at 0.3 uM relative to control.
Assay [2] relates to Heart. As to the kind of experiment: Antiarrhythmic activity against ouabain-induced arrhythmia in guinea pig left atria assessed as reversal of cardiac arrhythmia to normal rhythm at 1 uM. Type of assay: functional, tissue-based. To be noted: Cavia porcellus.
For assay [3], the system named is Left cardiac atrium. Kind of assay: Effect on 2 Hz electrically driven contractile tension in WKY rat left atria at 10 uM relative to control. Type of assay: functional.
The test system of assay [4] is Right cardiac atrium. Kind of assay: Effect on spontaneous contractile tension in WKY rat right atria at 1 uM relative to control.
The subject of assay [5] is Heart. Kind of assay: Effect on spontaneously beating heart rate in WKY rat right atria at 1 uM relative to control.
Assay [6] concerns Heart. As to the kind of experiment: Effect on spontaneously beating heart rate in WKY rat right atria at 30 uM relative to control.
Assay [7] concerns Heart. Kind of assay: Antiarrhythmic activity against ouabain-induced arrhythmia in guinea pig right ventricle assessed as reversal of cardiac arrhythmia to normal rhythm at 3 uM. Format: functional, tissue-based. To be noted: Cavia porcellus.
In assay [8] the test system is Left cardiac atrium. Kind of assay: Effect on 2 Hz electrically driven contractile tension in WKY rat left atria at 30 uM relative to control. Type of assay: functional.
Assay [9] is described as follows: Effect on 2 Hz electrically driven contractile tension in WKY rat right ventricle at 0.3 uM relative to control. Type of assay: functional, Heart right ventricle.
Assay [10] deals with Heart. Kind of assay: Antiarrhythmic activity against ouabain-induced arrhythmia in guinea pig right ventricle assessed as reversal of cardiac arrhythmia to normal rhythm at 1 uM. Format: functional, tissue-based. The note with it: Cavia porcellus.
A short description of assay [11]: Effect on 2 Hz electrically driven contractile tension in WKY rat right ventricle at 1 uM relative to control. Format: functional, Heart right ventricle.
The subject of assay [12] is Heart. As to the kind of experiment: Effect on spontaneously beating heart rate in WKY rat right atria at 3 uM relative to control.
Assay [13] relates to Right cardiac atrium. As to the kind of experiment: Effect on spontaneous contractile tension in WKY rat right atria at 30 uM relative to control.
The test system of assay [14] is Left cardiac atrium. Kind of assay: Effect on 2 Hz electrically driven contractile tension in WKY rat left atria at 3 uM relative to control. Format: functional.
Assay [15] relates to Heart. As to the kind of experiment: Effect on spontaneously beating heart rate in WKY rat right atria at 0.3 uM relative to control.
A short description of assay [16]: Effect on 2 Hz electrically driven contractile tension in WKY rat right ventricle at 10 uM relative to control. Format: functional, Heart right ventricle.
For assay [17], the system named is Right cardiac atrium. Kind of assay: Effect on spontaneous contractile tension in WKY rat right atria at 10 uM relative to control.
Assay [18] is described as follows: Effect on 2 Hz electrically driven contractile tension in WKY rat right ventricle at 30 uM relative to control. Format: functional, Heart right ventricle.
The test system of assay [19] is Right cardiac atrium. As to the kind of experiment: Effect on spontaneous contractile tension in WKY rat right atria at 3 uM relative to control.
The test system of assay [20] is Left cardiac atrium. As to the kind of experiment: Effect on 2 Hz electrically driven contractile tension in WKY rat left atria at 0.3 uM relative to control. Type of assay: functional.
Assay [21] concerns Heart. Kind of assay: Antiarrhythmic activity against ouabain-induced arrhythmia in guinea pig left atria assessed as reversal of cardiac arrhythmia to normal rhythm at 3 uM. Type of assay: functional, tissue-based. To be noted: Cavia porcellus.
The test system of assay [22] is Heart. As to the kind of experiment: Effect on spontaneously beating heart rate in WKY rat right atria at 10 uM relative to control.
Assay [23] deals with Left cardiac atrium. As to the kind of experiment: Effect on 2 Hz electrically driven contractile tension in WKY rat left atria at 1 uM relative to control. Type of assay: functional.
Assay [24] can be described thus: Effect on 2 Hz electrically driven contractile tension in WKY rat right ventricle at 3 uM relative to control. Format: functional, Heart right ventricle.
In assay [25] the test system is Heart. Kind of assay: Antiarrhythmic activity against ouabain-induced arrhythmia in guinea pig right atria assessed as reversal of cardiac arrhythmia to normal rhythm at 10 uM. Type of assay: functional, tissue-based. To be noted: Cavia porcellus.
Assay [26] has as its system Heart. As to the kind of experiment: Antiarrhythmic activity against ouabain-induced arrhythmia in guinea pig right ventricle assessed as reversal of cardiac arrhythmia to normal rhythm at 10 uM. To be noted: Cavia porcellus. Format: functional, tissue-based.
For assay [27], the system named is Heart. Kind of assay: Antiarrhythmic activity against ouabain-induced arrhythmia in guinea pig right ventricle assessed as reversal of cardiac arrhythmia to normal rhythm at 30 uM. Format: functional, tissue-based. To be noted: Cavia porcellus.
In assay [28] the test system is Heart. As to the kind of experiment: Antiarrhythmic activity against ouabain-induced arrhythmia in guinea pig right atria assessed as reversal of cardiac arrhythmia to normal rhythm at 1 uM. Type of assay: functional, tissue-based. The note with it: Cavia porcellus.
Assay [29] relates to Heart. As to the kind of experiment: Antiarrhythmic activity against ouabain-induced arrhythmia in guinea pig right atria assessed as reversal of cardiac arrhythmia to normal rhythm at 30 uM. To be noted: Cavia porcellus. Format: functional, tissue-based.
Assay [30] concerns Heart. Kind of assay: Antiarrhythmic activity against ouabain-induced arrhythmia in guinea pig right atria assessed as reversal of cardiac arrhythmia to normal rhythm at 3 uM. The note with it: Cavia porcellus. Type of assay: functional, tissue-based.

SMILES strings stand for the structures. Calls of active or inactive are those of the source. No cut-off for these calls is given here.

Regarding `OC[C@H]1O[C@@H](O[C@@H](CC#Cc2ccc(O)c(O)c2)[C@H](O)c2ccc(O)c(O)c2)[C@H](O)[C@@H](O)[C@@H]1O` [NYASICOSIDE], the Activity in assay [1] is listed as 96.8%; in assay [3], 100.3%; in assay [4] it was 94.5%; in assay [5], 98.8%; in assay [6] it was 98.5%; in assay [8] it was 98%. Further, the Activity in assay [9] is listed as 92.3%; in assay [11] it was 84.8%; in assay [12] it was 97.4%; in assay [13], 78%; in assay [14], 104.5%; in [15], 100%. The Activity in [16] is recorded as 78.2%; in [17], 83.3%; in [18] it was 74.6%; in [19], 92%; in assay [20] it was 108.3%; in assay [22], 98.5%. In addition, the Activity was determined as 105.8% in assay [23] and 83.6% in assay [24]. Further, the outcome in [2], in assay [7] and in assay [10] was inactive. Further, the outcome in assay [21] was Active.
Regarding `CCCCO[C@@H](c1ccc(O)c(O)c1)[C@H](CC#Cc1ccc(O)c(O)c1)O[C@@H]1O[C@H](CO)[C@@H](O)[C@H](O)[C@H]1O`, the Activity in assay [1] is recorded as 95.5%; in assay [3] it was 105%; in assay [4], 94.3%; in assay [5], 99%; in assay [6], 97.4%; in assay [8], 103.8%. For the same molecule, the Activity in [9] was 102%; in [11], 100%; in assay [12], 98.4%; in assay [13] it was 86.4%; in assay [14], 101.1%; in [15] it was 100%. Also, the Activity in assay [16] came to 96.8%; in [17], 87.8%; in assay [18] it was 92.2%; in assay [19], 91.6%; in assay [20] it was 98.8%; in [22], 98.4%. Moreover, the Activity was determined as 95.3% in assay [23] and 100.4% in assay [24]. For the same molecule, the result in [7], in assay [25], in [10] and in assay [26] was inactive.
For `CCCCO[C@H](c1ccc(O)c(O)c1)[C@H](CC#Cc1ccc(O)c(O)c1)O[C@@H]1O[C@H](CO)[C@@H](O)[C@H](O)[C@H]1O`, the Activity is 94% in assay [1]; 89.4% in [3]; 91% in [4]; 100% in [5]; 97.6% in assay [6]; 92.5% in assay [8]. The Activity is 99% in assay [9]; 95.8% in assay [11]; 99% in [12]; 83.6% in assay [13]; 91.2% in assay [14]; 100% in assay [15]. The Activity in assay [16] turned out to be 95.4%; in [17], 86.2%; in assay [18], 88.2%; in [19] it was 89.6%; in assay [20], 98.8%; in assay [22] it was 99.8%. The Activity in assay [23] is 96%; in [24], 96.8%. For the same molecule, the outcome in assay [10] was inactive. In addition, in assay [21], the result was Active.
`CO[C@H](c1ccc(O)c(O)c1)[C@H](CC#Cc1ccc(O)c(O)c1)O[C@@H]1O[C@H](CO)[C@@H](O)[C@H](O)[C@H]1O`: the Activity in assay [3] was 102.3%; in assay [4], 99%; in assay [5], 100%; in assay [6], 103%; in assay [8], 89.7%; in [11], 106.7%. Also, the Activity in [12] is on record as 103%; in assay [13], 101.7%; in assay [14] it was 101.3%; in [16] it was 104.3%; in assay [17] it was 100.3%; in assay [18], 99.3%. The Activity in assay [19] came out at 99%; in assay [22] it was 103%; in assay [23], 103%; in assay [24] it was 106.3%. For the same molecule, the outcome in assay [10] and in assay [21] was inactive.
Regarding `OC[C@H]1O[C@@H](O[C@@H](CC#Cc2ccc(O)cc2)[C@H](O)c2ccc(O)c(O)c2)[C@H](O)[C@@H](O)[C@@H]1O`, the Activity in assay [3] was found to be 119.3%; in assay [4], 97.5%; in assay [5] it was 97.5%; in assay [6], 98.5%; in assay [8] it was 116.3%; in [11] it was 98.4%. Also, the Activity was 97.5% in [12]; 94.8% in [13]; 111.5% in assay [14]; 100% in [15]; 95.2% in [16]; 94.5% in [17]. The Activity is on record as 94.2% in assay [18]; 98.3% in assay [19]; 98.5% in assay [22]; 106.8% in assay [23]; 99.2% in assay [24]. For the same molecule, the result in assay [7], in assay [27], in [25], in assay [10], in assay [28] and in assay [29] was inactive. Moreover, the outcome in [26] and in [30] was inactive.
